Experimental findings from PubChem BioAssay (NCI) are described below.

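How tested: cells in 96-well plates exposed to compound for 48 hours at five concentrations. GI50 marks 50% less growth. TGI is the concentration that stops growth completely.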

Test in all cases: inhibition of tumour cell growth, NCI panel, 48 h
Test [1] relates to SR leukemia.
Test [2] concerns SN12C renal.
Test [3] concerns COLO 205 colon.
Test [4] concerns OVCAR-4 ovarian.
Test [5] relates to DU-145 prostate.
Test [6] concerns A549 NSCLC.
The subject of test [7] is SK-MEL-2 melanoma.
For test [8], the system named is MDA-MB-435.
For test [9], the system named is MCF7 breast.
The subject of test [10] is SF-539 CNS.

In the case of `COc1nc(N)nc2c1ncn2[C@@H]1O[C@H](CO)[C@@H](O)[C@@H]1O`, the GI50 in test [1], in test [2], in [3], in [4], in test [5] and in [6] was greater than 100 µM each time. The GI50 in [7], in [8], in test [9] and in [10] was greater than 100 µM each time. Also, the TGI in [1], in test [2], in [3], in test [4], in test [5] and in test [6] was greater than 100 µM each time. In addition, the TGI in test [7], in test [8], in test [9] and in test [10] was greater than 100 µM in each case.

For the molecule `Cc1sc(NC2=NC(=O)/C(=C\c3ccccc3)S2)nc1-c1nc(NC2=NC(=O)/C(=C\c3ccccc3)S2)sc1C`, the GI50 in test [1] is 7.49 µM; in test [2], 11.4 µM; in test [3] it was 26.4 µM; in test [5] it was 0.382 µM; in [6], 15.5 µM; in [7] it was greater than 35.1 µM. Also, the GI50 in test [8] is 16.3 µM; in test [9], 16.2 µM; in test [10], 17.9 µM. In addition, the TGI in test [1] was 21.4 µM; in test [2] it was 29.8 µM; in test [3], greater than 50 µM; in test [5] it was greater than 20.6 µM; in test [6], greater than 39.6 µM; in [7], greater than 50 µM. Besides, the values for the TGI in test [8], in test [9] and in [10] were greater than 50 µM, greater than 50 µM and greater than 34.1 µM, respectively.

Take `COc1ccc(-c2nc(N3CCOCC3)c3sc(CN(C)c4ncc(C(=O)NO)cn4)cc3n2)cn1`: the GI50 was less than 0.01 µM in test [1]; 0.0168 µM in [2]; 0.0147 µM in test [4]; less than 0.01 µM in test [5]; less than 0.01 µM in test [6]; 0.02 µM in test [7]. The GI50 in [8] is less than 0.01 µM; in test [9], less than 0.01 µM; in test [10] it was 0.0101 µM. Moreover, the TGI in [1] was determined as 0.234 µM; in [2], 1.27 µM; in test [4], 1.82 µM; in test [5], 0.141 µM; in [6] it was 0.0625 µM; in test [7], 0.0799 µM. In addition, the TGI in test [8] came out at 0.0284 µM; in [9], 0.366 µM; in test [10], 0.161 µM.

As to `O=C(O)c1ccccc1-c1ccccc1C(=O)Nc1ccc2c(c1)[nH]c(=O)c1ccccc12`, the TGI in test [2], in test [3], in test [4], in [5], in test [6] and in [7] was greater than 100 µM in each case. The TGI in [8], in test [9] and in test [10] was greater than 100 µM throughout.

In the case of `Cc1ccc(-c2nc(N)c(C#N)c3c2CCOc2c-3ccc3ccccc23)cc1`, the GI50 in test [1] was 0.0882 µM; in test [2], 12.3 µM; in test [3], 0.418 µM; in test [4], 16.3 µM; in [5] it was 2.04 µM; in test [6], 1.2 µM. In addition, the GI50 was 0.0309 µM in test [8], 0.284 µM in [9] and 0.457 µM in [10]. For the same molecule, the TGI in [1] is greater than 100 µM; in test [2] it was 53.9 µM; in [3] it was greater than 100 µM; in test [4], greater than 79.5 µM; in test [5] it was 17.2 µM; in [6], 22.9 µM. Moreover, the TGI is 0.459 µM in test [8], greater than 34.4 µM in test [9] and 3.48 µM in [10].

Turning to `Cc1ccc(NC2=C(Cl)C(=O)N(Cc3ccccc3)C2=O)cc1Cl`, the GI50 in test [1] is 1.19 µM; in test [2] it was 3.4 µM; in test [3] it was 7.03 µM; in [4] it was 10.7 µM; in [5], 14.4 µM; in [6], 5.74 µM. In addition, the GI50 in test [8] was 5.29 µM; in [9] it was 3.3 µM. Moreover, the TGI in test [1] was found to be 5.75 µM; in test [2], 15.8 µM; in test [3], 22.1 µM; in test [4] it was 26.6 µM; in test [5], 27.8 µM; in test [6] it was 18.8 µM. For the same molecule, the TGI in test [8] worked out at 25.7 µM; in [9] it was 13.7 µM.

Turning to `CC1OC(n2c3ccccc3c3c4c(c5c6ccccc6[nH]c5c32)C(=O)N(CCN2CCOCC2)C4=O)CC(O)C1O` (stereo not given), the GI50 in test [1] is 0.257 µM; in test [2] it was 1.75 µM; in test [3] it was 1.22 µM; in [4], 4.03 µM; in test [5], 2 µM; in test [6], 2.51 µM. The GI50 in test [7] was 10.6 µM; in test [8] it was 2.71 µM; in [9], 1.05 µM. For the same molecule, the TGI in test [1] came out at 14.5 µM; in [2] it was 7.47 µM; in [3] it was 7.81 µM; in [4] it was 14.1 µM; in [5] it was 7.85 µM; in test [6] it was 10.4 µM. The TGI worked out at 22 µM in test [7], 9.59 µM in test [8] and 18 µM in [9].

On to `N#C/C(=C1C=C/C(=N\O)C(Cl)=C\1)c1ccccc1`, for which the GI50 in [1] is 1.8 µM; in test [2] it was 3.19 µM; in test [3], 7.52 µM; in test [4] it was 12.7 µM; in test [5], 3.32 µM; in test [6] it was 3.27 µM. The GI50 in test [8] was 0.542 µM; in test [9] it was 0.321 µM; in [10] it was 1.34 µM. The TGI in [1] was 11.3 µM; in test [2] it was 13 µM; in test [3] it was 24.4 µM; in test [4] it was 51.5 µM; in [5] it was 9.47 µM; in test [6], greater than 100 µM. Moreover, the TGI in test [8] came to 2.66 µM; in test [9], 11.5 µM; in test [10] it was 5 µM.
